Assay results: a melting point compilation (Tetko et al.; mined from patent text by program, amines drawn as free bases though some values may be those of a salt)

SMILES	melting point [°C]
O=C(O)c1ccccc1Oc1ccc(Cl)cn1	159
CC(C)(C)c1cc(C(=O)Nc2cccnc2NC(=O)NC23CC4CC(CC(C4)C2)C3)cc(C(C)(C)C)c1O	198 to 202
O=C1CCc2cc(CN3CCN(C(=O)c4ccc(Oc5ccc(NC(=O)c6ccc(C(F)(F)F)cc6)cn5)cc4)CC3)ccc2N1	250 to 252
CCC(=O)c1cc2cc(OC)ccc2[nH]1	170 to 172
O=Cc1cc2c3c(ccc4c3c1CCC4)CCC2	102 to 105
O=C1Nc2ccc(I)cc2C1=NNC(=O)c1ccc(Oc2ccccc2)cc1	296
CC(=O)Oc1ccccc1C(=O)CNc1c(C(=O)O)[nH]c2cc(Cl)ccc12	184 to 186
CN1CCN(C2CC3C4CCC5CC(O)C(N6CCC7(CC6)OCCO7)CC5(C)C4CCC3(C)C2O)CC1 (stereo unspecified)	185 to 187
Cc1ccn2c(C)c(-c3ccc4c(c3)N(C)C(=O)CS4)nc2c1	231
CCOC(=O)c1c(Cl)nn(-c2c(Cl)cc(C(F)(F)F)cc2Cl)c1N	143 to 146
COC(=O)C(=O)NCCSC(c1ccccc1)c1ccccc1	88 to 89
Cc1[nH]c(S(C)(=O)=O)nc1-c1cc(C(C)(C)C)c(O)c(C(C)(C)C)c1	235 to 237
O=c1c(-c2ccccc2)coc2ccccc12	132 to 134
CC(C)n1c(/C=C/[C@H]2C[C@H](CC(=O)OC(C)(C)C)OC(C)(C)O2)c(-c2ccc(F)cc2)c(-c2ccccc2)c1C(N)=O	73 to 75
CCC(=CC(CNC(=O)c1ccc(N)nc1)=NO)C(C)[N+](=O)[O-] (stereo unspecified)	157 to 161
N#Cc1[nH]c(Br)c(Br)c1Br	215 to 218
CNC1CCCN(C(=O)c2ccc(NC(=O)c3ccccc3C)s2)c2ccc(Cl)cc21 (stereo unspecified)	213 to 216
O=C(O)[C@H]1C[C@H](NC(=O)N(c2ccccc2)c2ccccc2)c2c(Cl)cc(Cl)cc2N1 (relative stereo)	214 to 216
N=C(N)c1nc2c(s1)CCc1c-2sc2ncnn12	> 300

SMILES	melting point [°C]
COC(=O)C(Cc1cc(C(C)(C)C)c(O)c(C)c1C)C(=O)OC	140 to 143
N#CCN1CCC(Nc2nc3ccccc3n2Cc2ccc(CO)o2)CC1	210
c1csc(C2=NOCCS2)c1	86 to 89
CCC(CC)Nc1cc(C(=O)OC)ccc1N1C(=O)CCC1(CO)CCO (stereo unspecified)	141 to 143
N#CC(C#N)=C1Sc2nc3ccc([N+](=O)[O-])cc3nc2S1	220 to 222
COc1cc2ncnc(NC3=CC(=O)C(N4CCOCC4)=CC3=O)c2cc1OC	249 to 250
Cc1cc(-c2nc3c(Cl)cccc3c(=O)n2-c2ccc(Br)cc2)cc(C)c1OCCO	185 to 186
CCC#CCOc1cc(C=O)ccc1OC	38 to 39
CC(C)(CNC(=O)c1ccccc1-c1ccccc1C(=O)O)SN=O	121 to 123
CCc1cc(C(C)(C)c2ccc(C(C)(C)c3cc(CC)c(NC)c(CC)c3)cc2)cc(CC)c1NC	105 to 108
CCCCCCCCCCCCNC(=O)c1cc(Br)c(OCCNC(=O)OC)c(-c2cccc(C(F)(F)F)c2)c1	79.6 to 80.5
CCCN(Cc1ccc(-c2ccccc2-c2nnn[nH]2)cc1)c1nc(OCc2ccccc2)ccc1C(=O)O	68 to 82
COc1cc(C(C)=O)ccc1OCCCN1C2CCC1CC(c1nsc3cc(F)ccc13)C2 (stereo unspecified)	118 to 119
CC1N=C(c2ccccc2F)c2cc(C(C)N)ccc2N(C)C1=O (stereo unspecified)	48 to 50
CC1CN(c2c(F)cc3c(=O)c(C(=O)O)cn(C)c3c2C(F)(F)F)CCN1c1ncccn1 (stereo unspecified)	283 to 284
O=C(O)C1CCc2ccccc2O1 (single isomer, unassigned; (+))	85.5
CCN(C(=S)Nc1cc(Cl)ccc1C)c1c(C)nn(C)c1C	144 to 145
Fc1c(F)c(F)c(CSc2ncccn2)c(F)c1F	89 to 92
COC[C@H]1CN(c2ccc3nc([C@@H](O)CCC#N)sc3c2)C(=O)O1	74 to 75

SMILES	melting point [°C]
Sc1n[nH]c(-n2cccn2)n1	245 to 247
CC(=O)OCc1nc2c(NCc3c(C)cccc3C)cc(Br)cc2n1C	188 to 190
COc1ccc(C(=O)c2ccccc2F)c(O)c1Cl	132 to 133
CCCCNC(=O)Nc1cccc2c1C(=O)c1c-2n[nH]c1-c1ccc(OC)cc1	252
COCCCOc1ccc(CCCOC(=O)NS(=O)(=O)NCCOC(C)C)c(Oc2ncc(C(F)(F)F)cc2Cl)c1	67.4 to 68
O=CC(=Cc1ccccc1)C(C=O)=Cc1ccccc1	109 to 110
[N-]=[N+]=Nc1cc(N)cc(I)c1	89 to 91
C[C@H](NC(=O)OCC1c2ccccc2-c2ccccc21)C(=O)N1[C@H](C)C(=O)OC[C@@H]1c1ccccc1	87 to 88
CCCCCCCCCCCCCCCCCCOc1cc(C(=O)OC)cc(C(=O)N(CC(=O)OCC)CC(=O)OCC)c1	57 to 60
O=C(Nc1cc(Cl)ccc1OCc1nnn[nH]1)c1cc(-c2ccc(Cl)cc2)oc1C(F)(F)F	227 to 236
COCN1C(C)=NC(C)=C(C(=O)NCCCN2CCC(C(=O)OC)(c3ccccc3)CC2)C1c1ccc(F)c(F)c1 (stereo unspecified)	53 to 57
COC(=O)N(CCCc1ccccc1)[C@H]1CC[C@H](c2ccc(O)cc2)CC1	128 to 133
Cc1nn2c(-c3cc(Cl)ccc3Cl)ccnc2c1C(N)=O	234 to 236
CCCCCCCCSc1nc(-c2ccccc2)c(-c2ccccc2)[nH]1	133 to 134
CCOc1nc2c(cnn2CC)nc1C(=O)Cl	86 to 87
C=Cc1ccc(Nc2nc(Cl)nc(Cl)c2Cl)cc1	112 to 114
CC(C)(C)OC1CCC2(C)C(=CC(=O)C3C4CCC(=O)C4(C)CCC32)C1 (stereo unspecified)	189 to 191
COC(=O)c1cccc2nc(N3CCCCC3)n(Cc3ccc(-c4ccccc4-c4nnn[nH]4)cc3)c12	146 to 150

Next, values leading:

melting point [°C]	SMILES
< 50	CC(O)c1cc([N+](=O)[O-])ccc1F (stereo unspecified)
116 to 119	CC(C)(C)[Si](C)(C)OC1CC=C(c2ccc(NC(=O)OCc3ccccc3)c(F)c2)CC1 (stereo unspecified)
210 to 214	Cc1cc(NC(=O)NC(=O)c2c(Cl)cccc2Cl)ncc1-c1ccccc1
118	O=c1oc(C(F)(F)F)nc(-c2ccccc2)c1-c1ccccc1
60 to 85	COc1ccc(CNc2nc(NCc3ccc(OC)cc3)c3[nH]nc(C(C)C)c3n2)cc1
202	Cc1ccccc1C(=O)Nc1ccc(C(=O)N2CCCC(N(C)C)c3ccccc32)cc1O (stereo unspecified)
159 to 162	CC(C)(C)C(=O)Oc1ccc(OC(=O)C(C)(C)C)c(C(=O)O)c1
44 to 46	COC(=O)C(Sc1ccc(Cl)cc1)c1ccc(I)cc1 (stereo unspecified)
132	CCCN(CC(=O)NC12CC3CC(CC(C3)C1)C2)C(=O)NCCCc1ccncc1
116 to 118	CC(=NO)c1ccccc1Nc1c(Cl)ccc(C)c1Cl
120 to 128	COc1ccc(NC(=O)N(Cc2ccccc2)Cc2cccnc2)c(NC(=O)c2cc(C(C)(C)C)c(O)c(C(C)(C)C)c2)c1
131 to 132	C=C1COc2ccc(C(C)=O)cc2C(Cc2ccccc2)(S(=O)(=O)c2ccccc2)C1 (stereo unspecified)
95	C#CCn1cc(C#N)c(CO)c1
295 to 297	Nc1nc(N)c2ncn(OCCCCP(=O)(O)O)c2n1
148 to 149	CCOC(=O)Cc1c(C)ncnc1O
89 to 90	OCc1csc(N2CCCCC2)n1
294 to 295	Cn1cc(C(=O)c2sc(NC(=O)c3ccncc3)nc2-c2ccco2)ccc1=O
220 to 222	CCOC(=O)C=C(C)C=CC=C(C)C=Cc1c(C)c(Cl)c(C)c(Cl)c1C
60 to 62	O=C(OI(OC(=O)C(F)(F)F)C(F)(F)C(F)(F)C(F)(F)C(F)(F)C(F)(F)C(F)(F)F)C(F)(F)F
183 to 185	O=S1(=O)c2sccc2C(O)CN1Cc1ccncc1 (stereo unspecified)

melting point [°C]	SMILES
140 to 141	O=C(Nc1nnc(CC2CC2)o1)C1c2ccccc2Oc2ccccc21
69 to 72	Cc1nc(CN(C)C(=O)N[C@H](C(=O)N[C@@H](Cc2ccccc2)C[C@H](O)[C@H](Cc2ccccc2)NC(=O)OCc2cccnc2)C(C)C)cs1
136 to 137	Cc1on(C(=O)N(c2ccc(Cl)cc2)C(C)C)c(=O)c1Cl
183 to 184	CNC(=O)c1c(-c2ccccc2)noc1CC(O)c1ccccc1 (stereo unspecified)
180	CCNC(=O)C1OC(n2cnc3c(NCc4ccc(O)cc4)ncnc32)C(O)C1O (stereo unspecified)
128 to 130	CCOC(Cc1c(N(C(C)=O)C(C)=O)nc(NC(C)=O)[nH]c1=O)OCC
215 to 216	O=C(COc1ccc2ccccc2c1)Nc1ccc(C(=O)C(=O)O)cc1
335 to 338	N#Cc1ccc2c(c1)NC(=O)C2c1ncnc2c1cnn2C1CCCC1 (stereo unspecified)
220 to 222	Nc1ncc(-c2cc(C(F)(F)F)cc(C(F)(F)F)c2)nc1C(=O)Nc1cccnc1
73 to 75	CC(C)(O)CCCCCc1cccc(CCc2ccc(O)c(CO)c2)c1
62 to 64	CC(C)c1csc(COC(=O)NC(C(=O)NC(Cc2ccccc2)CC(O)C(Cc2ccccc2)NC(=O)OCc2cncs2)C(C)C)n1 (stereo unspecified)
49 to 50	COC(=O)c1cc(I)cnc1Cl
204 to 205	CCOc1cc2c(cc1S(N)(=O)=O)C(CNC(=O)c1cc(Cl)ccc1OC)CCO2 (stereo unspecified)
191 to 193	O=c1ccc(-c2ccc(OCCCCl)cc2)n[nH]1
125	Cc1ccc(NCc2ccc(C(=O)Nc3ccccc3NC(=O)OC(C)(C)C)cc2)cc1Nc1nccc(-c2cccnc2)n1
205 to 206	CNC(=O)NCc1cccc(-c2csc(N=C(N)N)n2)n1
271 to 273	COc1cc2cc3ncc(C#N)c(Nc4ccc(Cl)cc4Cl)c3cc2cc1OC
95 to 99	CS(=O)(=O)Nc1ccc2c(c1)C(=NO)CC1(CCN(CCc3ccccc3)CC1)O2
155 to 158	O=C(O)C(O)=CC(=O)c1ccccc1
211 to 215	CCCNc1cc(NS(=O)(=O)c2ccc(N)cc2)nc(NCCC)n1
